In series [1] the test system is Staphylococcus aureus. The series can be described thus: Antibacterial activity against Staphylococcus aureus SMITH after 18 hrs by two-fold microbroth dilution method. The series is classed as functional. (In broth dilution the organism is exposed to a series of concentrations in liquid medium.)
The test system of series [2] is Streptococcus pneumoniae. Briefly: Antibacterial activity against penicillin-susceptible Streptococcus pneumoniae J24 after 18 hrs by two-fold microbroth dilution method. The series is classed as functional. The conditions noted are these: J24, 18 h.
For series [3], the system named is Streptococcus pneumoniae. Briefly: Antibacterial activity against penicillin-susceptible Streptococcus pneumoniae J41 after 18 hrs by two-fold microbroth dilution method. The series is classed as functional. The conditions noted are these: J41, 18 h.
The test system of series [4] is Streptococcus pyogenes. Briefly: Antibacterial activity against Streptococcus pyogenes ATCC 12344 after 18 hrs by two-fold microbroth dilution method. It counts as functional. Conditions: ATCC 12344, 18 h.
For series [5], the system named is Enterococcus faecalis. The series can be described thus: Antibacterial activity against Enterococcus faecalis ATCC 19433 after 18 hrs by two-fold microbroth dilution method. The series is classed as functional. The conditions noted are these: ATCC 19433, 18 h.
The subject of series [6] is Bacillus spizizenii. Briefly: Antibacterial activity against Bacillus subtilis ATCC 6633 after 18 hrs by two-fold microbroth dilution method. The series is classed as functional. Conditions: ATCC 6633, 18 h.
The subject of series [7] is Escherichia coli. The series can be described thus: Antibacterial activity against Escherichia coli NIHJ after 18 hrs by two-fold microbroth dilution method. It counts as functional.
Series [8] has as its system Klebsiella pneumoniae. The series can be described thus: Antibacterial activity against Klebsiella pneumoniae TYPE 1 after 18 hrs by two-fold microbroth dilution method. It counts as functional. Conditions: TYPE 1, 18 h.
The test system of series [9] is Haemophilus influenzae. Briefly: Antibacterial activity against Haemophilus influenzae ATCC 49247 after 18 hrs by two-fold microbroth dilution method. Conditions: ATCC 49247, 18 h. It counts as functional.
Series [10] concerns Moraxella catarrhalis. Briefly: Antibacterial activity against Moraxella catarrhalis ATCC 25238 after 18 hrs by two-fold microbroth dilution method. The series is classed as functional. Conditions: ATCC 25238, 18 h.
Series [11] has as its system Pseudomonas aeruginosa. Briefly: Antibacterial activity against Pseudomonas aeruginosa PAO1 after 18 hrs by two-fold microbroth dilution method. Conditions: PAO1, 18 h. The series is classed as functional.
Series [12] concerns Staphylococcus aureus. The series can be described thus: Antibacterial activity against levofloxacin and methicillin-resistant Staphylococcus aureus 870307 after 18 hrs by two-fold microbroth dilution method. It counts as functional. Conditions: Staphylococcus aureus, 870307, 18 h.
The subject of series [13] is Staphylococcus aureus. The series can be described thus: Antibacterial activity against levofloxacin and methicillin-resistant Staphylococcus aureus 890325-1 after 18 hrs by two-fold microbroth dilution method. It counts as functional. Conditions: 890325-1, 18 h.
Series [14] has as its system Escherichia coli. Briefly: Antibacterial activity against quinolone-resistant Escherichia coli DNS5101 after 18 hrs by two-fold microbroth dilution method. The series is classed as functional. Conditions: DNS5101, 18 h.
Series [15] deals with Escherichia coli. The series can be described thus: Antibacterial activity against Escherichia coli 5-037042'98 harboring gyrase A Asp87Gly mutation after 18 hrs by two-fold microbroth dilution method. It counts as functional. The conditions noted are these: 5-037042'98, 18 h.
Series [16] has as its target T1, hERG (KCNH2) (Homo sapiens, UniProt Q12809). The series can be described thus: Inhibition of human ERG expressed in HEK293 cells at 30 uM. It counts as cell-based. Conditions: HEK293 cells that express human ERG.
The target of series [17] is T1, hERG (KCNH2). Briefly: Inhibition of human ERG expressed in HEK293 cells at 100 uM. The series is classed as cell-based. The conditions noted are these: HEK293 cells that express human ERG.
A short description of series [18]: Cmax in Crj:CD rat at 5 mg/kg, po. The series is classed as ADME, organism-based. More on the design: dose 5 mg/kg, route oral. The conditions noted are these: in vivo.
The nature of series [19]: AUC (0 to 8 hrs) in Crj:CD rat at 5 mg/kg, po. It counts as ADME, organism-based. More on the design: time < 8 hr, dose 5 mg/kg, route oral. The conditions noted are these: in vivo.
Series [20] in a line: Metabolic stability in human microsomes at 1 uM assessed as compound remaining after 30 mins. The series is classed as ADME, Microsome. The conditions noted are these: read-out: Stability.
The target in series [21] is Albumin (Homo sapiens, UniProt P02768). The series can be described thus: Binding affinity to human serum albumin after 60 mins at 37 degC by ultrafiltration-based LC-MS analysis. It counts as ADME. The conditions noted are these: read-out: PB (converted).
Chain of Albumin (P02768 whole entry): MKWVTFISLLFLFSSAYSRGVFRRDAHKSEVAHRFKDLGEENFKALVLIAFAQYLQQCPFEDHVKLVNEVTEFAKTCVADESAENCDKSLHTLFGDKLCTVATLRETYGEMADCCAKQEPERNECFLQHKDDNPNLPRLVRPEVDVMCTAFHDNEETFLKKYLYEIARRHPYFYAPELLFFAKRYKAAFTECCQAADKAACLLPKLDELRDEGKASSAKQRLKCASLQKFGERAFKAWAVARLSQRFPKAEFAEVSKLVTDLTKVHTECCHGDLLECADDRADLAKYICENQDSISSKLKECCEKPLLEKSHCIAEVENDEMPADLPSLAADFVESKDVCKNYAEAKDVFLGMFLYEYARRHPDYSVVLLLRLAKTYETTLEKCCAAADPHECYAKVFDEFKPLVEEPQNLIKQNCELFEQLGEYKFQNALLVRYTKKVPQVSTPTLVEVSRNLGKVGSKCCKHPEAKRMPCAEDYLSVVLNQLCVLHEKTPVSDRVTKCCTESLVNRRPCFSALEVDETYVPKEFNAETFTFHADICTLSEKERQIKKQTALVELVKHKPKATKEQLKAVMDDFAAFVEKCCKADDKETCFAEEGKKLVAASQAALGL
Series [22] concerns Staphylococcus aureus. Briefly: Antibacterial activity against methicillin-resistant Staphylococcus aureus after 18 hrs by two-fold microbroth dilution method. The series is classed as functional.
Series [23] concerns Streptococcus pneumoniae. Briefly: Antibacterial activity against penicillin-resistant Streptococcus pneumoniae 033806 after 18 hrs by two-fold microbroth dilution method. It counts as functional. Conditions: Streptococcus pneumoniae, 033806, 18 h.
Series [24] is described as follows: AUC (0 to 24 hrs) in cynomolgus monkey serum at 5 mg/kg, po. More on the design: time < 24 hr, dose 5 mg/kg, route oral. It counts as ADME, organism-based, Macaca fascicularis.
The nature of series [25]: AUC (0 to 8 hrs) in cynomolgus monkey serum at 10 mg/kg, iv. It counts as ADME, organism-based, Macaca fascicularis. More on the design: time < 8 hr, dose 10 mg/kg, route intravenous.
Series [26] relates to Mus musculus. The series can be described thus: Toxicity in Slc:ddY mouse assessed as induction of convulsion at 5 ug/5 uL/mouse administered intracisternally and measured over 30 mins post dose. It counts as organism-based. Conditions: in vivo, other, 0.5 h.
Series [27] concerns Mus musculus. Briefly: Toxicity in Slc:ddY mouse assessed as induction of convulsion at 15 ug/5 uL/mouse administered intracisternally 30 mins after 400 mg/kg, po BPAA dosing and measured over 30 mins post dose. It counts as organism-based. Conditions: in vivo, 0.5 h.

The values below come from ChEMBL document CHEMBL4229492, “Design, Synthesis, and Biological Evaluation of Novel 7-[(3 aS,7 aS)-3 a-Aminohexahydropyrano[3,4- c]pyrrol-2(3 H)-yl]-8-methoxyquinolines with Potent Antibacterial Activity against Respiratory Pathogens” (J Med Chem, 2018).

Values after ≈ are worked out from the molar mass of the structure shown.

T1 sequence (Q12809 whole entry): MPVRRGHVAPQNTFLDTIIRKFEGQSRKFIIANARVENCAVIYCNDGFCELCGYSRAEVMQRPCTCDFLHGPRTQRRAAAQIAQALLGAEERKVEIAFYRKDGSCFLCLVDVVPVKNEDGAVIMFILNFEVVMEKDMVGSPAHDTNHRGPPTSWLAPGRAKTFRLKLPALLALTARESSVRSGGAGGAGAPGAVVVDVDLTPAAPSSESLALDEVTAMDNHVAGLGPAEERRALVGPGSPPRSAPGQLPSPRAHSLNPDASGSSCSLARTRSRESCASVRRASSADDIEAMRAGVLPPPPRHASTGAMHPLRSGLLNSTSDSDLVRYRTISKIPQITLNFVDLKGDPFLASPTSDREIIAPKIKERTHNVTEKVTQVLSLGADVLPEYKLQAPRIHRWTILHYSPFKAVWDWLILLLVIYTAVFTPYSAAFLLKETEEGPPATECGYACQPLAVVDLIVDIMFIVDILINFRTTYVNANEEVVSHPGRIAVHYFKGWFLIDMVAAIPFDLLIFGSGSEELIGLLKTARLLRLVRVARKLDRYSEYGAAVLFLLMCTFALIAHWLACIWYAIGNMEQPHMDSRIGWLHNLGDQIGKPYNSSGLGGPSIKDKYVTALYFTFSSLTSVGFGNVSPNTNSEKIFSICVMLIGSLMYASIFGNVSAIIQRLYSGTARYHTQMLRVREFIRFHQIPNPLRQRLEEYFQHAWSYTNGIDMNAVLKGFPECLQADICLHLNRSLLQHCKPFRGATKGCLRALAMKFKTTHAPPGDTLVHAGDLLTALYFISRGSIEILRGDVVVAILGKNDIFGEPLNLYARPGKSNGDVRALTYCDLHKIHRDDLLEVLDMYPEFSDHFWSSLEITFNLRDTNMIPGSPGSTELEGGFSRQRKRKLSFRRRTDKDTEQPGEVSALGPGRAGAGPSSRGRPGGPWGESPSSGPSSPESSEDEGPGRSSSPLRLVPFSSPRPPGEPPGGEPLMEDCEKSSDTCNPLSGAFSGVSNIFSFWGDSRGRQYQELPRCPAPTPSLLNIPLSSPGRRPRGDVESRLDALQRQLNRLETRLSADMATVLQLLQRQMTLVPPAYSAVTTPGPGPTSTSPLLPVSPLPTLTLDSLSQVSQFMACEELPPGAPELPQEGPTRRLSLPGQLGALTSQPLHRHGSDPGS

For orientation: inhibition means the drop in the measured response relative to a control, in per cent. In general, Cmax refers to the peak of the concentration-time curve. What is called AUC(0-t) is the area under the concentration-time curve up to a stated or last time point. Regarding `N[C@@]12CCCC[C@H]1CNC2`, the MIC is less than 0.003 µg/mL in series [1]; 0.025 µg/mL (≈ 0.178 µM) in series [2]; 0.025 µg/mL (≈ 0.178 µM) in series [3]; 0.025 µg/mL (≈ 0.178 µM) in series [4]; 0.1 µg/mL (≈ 0.713 µM) in series [5]; 0.006 µg/mL (≈ 0.0428 µM) in series [6]. In addition, the MIC worked out at 0.006 µg/mL (≈ 0.0428 µM) in series [7]; 0.05 µg/mL (≈ 0.357 µM) in [8]; 0.012 µg/mL (≈ 0.0856 µM) in series [9]; 0.025 µg/mL (≈ 0.178 µM) in series [10]; 0.39 µg/mL (≈ 2.78 µM) in [11]; 0.1 µg/mL (≈ 0.713 µM) in series [12]. The MIC in [13] came to 0.1 µg/mL (≈ 0.713 µM); in series [14] it was 1.56 µg/mL (≈ 11.1 µM); in series [15], 0.025 µg/mL (≈ 0.178 µM). Moreover, in [16], the inhibition at 30 µM amounted to 19%. Moreover, the inhibition at 100 µM in series [17] is 36%. This compound had a Cmax in series [18] of 1280 ng/mL. The same compound gave an AUC(0-t) at 8 h in [19] of 4760 ng·h/mL.
Take `COc1c(N2C[C@H]3CCOC[C@@]3(N)C2)c(F)cc2c(=O)c(C(=O)O)cn([C@@H]3C[C@@H]3F)c12`: the MIC in series [1] was found to be 0.012 µg/mL (≈ 0.0276 µM); in series [2], 0.2 µg/mL (≈ 0.459 µM); in series [3], 0.2 µg/mL (≈ 0.459 µM); in series [4], 0.2 µg/mL (≈ 0.459 µM); in series [5] it was 0.39 µg/mL (≈ 0.896 µM); in [6], 0.025 µg/mL (≈ 0.0574 µM). Also, the MIC in series [7] worked out at 0.05 µg/mL (≈ 0.115 µM); in series [8] it was 0.2 µg/mL (≈ 0.459 µM); in series [9], 0.012 µg/mL (≈ 0.0276 µM); in series [10], 0.1 µg/mL (≈ 0.23 µM); in series [11] it was 3.13 µg/mL (≈ 7.19 µM); in [12] it was 0.78 µg/mL (≈ 1.79 µM). For the same compound, the MIC in series [13] was 0.78 µg/mL (≈ 1.79 µM); in series [14], more than 6.25 µg/mL; in [15] it was 0.39 µg/mL (≈ 0.896 µM). Also, the inhibition at 30 µM in [16] is -6.4%. The inhibition at 100 µM in [17] is -7.5%. Moreover, in series [20], the remaining at 0.5 h, 1 µM worked out at 100%. In addition, the fraction unbound at 1 h in series [21] is 0.88.
For the compound `N[C@@]12CCC[C@@H]1CNC2`, the MIC in series [1] was less than 0.003 µg/mL; in series [2] it was 0.05 µg/mL (≈ 0.396 µM); in series [3] it was 0.1 µg/mL (≈ 0.792 µM); in series [4], 0.025 µg/mL (≈ 0.198 µM); in series [5] it was 0.1 µg/mL (≈ 0.792 µM); in series [6], 0.012 µg/mL (≈ 0.0951 µM). The MIC in series [7] amounted to 0.025 µg/mL (≈ 0.198 µM); in [8], 0.1 µg/mL (≈ 0.792 µM); in [9], 0.006 µg/mL (≈ 0.0475 µM); in series [10] it was 0.025 µg/mL (≈ 0.198 µM); in series [11], 0.39 µg/mL (≈ 3.09 µM); in [12], 0.78 µg/mL (≈ 6.18 µM). The values for the MIC in series [13], in series [14] and in series [15] were 0.78 µg/mL (≈ 6.18 µM), 6.25 µg/mL (≈ 49.5 µM) and 0.1 µg/mL (≈ 0.792 µM), respectively. For the same compound, the peak level in series [18] (Cmax) was 49 ng/mL. This compound also came in with an AUC(0-t) at 8 h in [19] of 210 ng·h/mL.
A word on the MIC50: it is an inhibitory concentration at the 50% level, which refers to growth in some studies and to a panel of isolates in others. The MIC90 is the lowest concentration that inhibits either 90% of growth or 90% of the strains tested, depending on the study. On to `C[C@H]1NCc2cc(-c3ccc4c(=O)c(C(=O)O)cn(C5CC5)c4c3OC(F)F)ccc21` [GARENOXACIN], for which, in [22], the MIC was 0.008 to 8 µg/mL. In series [22] (Staphylococcus aureus, 18 h), this compound registered an MIC50 of 0.03 µg/mL (≈ 0.0704 µM) and an MIC90 of 1 µg/mL (≈ 2.35 µM).
In the case of `C[C@H]1COc2c(N3CCN(C)CC3)c(F)cc3c(=O)c(C(=O)O)cn1c23.C[C@H]1COc2c(N3CCN(C)CC3)c(F)cc3c(=O)c(C(=O)O)cn1c23.O` [LEVOFLOXACIN], the MIC in series [1] came out at 0.1 µg/mL; in [3], 1.56 µg/mL; in series [4], 0.39 µg/mL; in series [6] it was 0.05 µg/mL; in series [13], 6.25 µg/mL; in [23], 1.56 µg/mL. Moreover, the MIC in series [14] was more than 6.25 µg/mL; in [15] it was 0.1 µg/mL; in [22] (Staphylococcus aureus, 18 h, read-out: MIC), 0.25 to 64 µg/mL. This compound also had an MIC50 in series [22] (Staphylococcus aureus, 18 h) of 0.5 µg/mL. The compound also returned an MIC90 in series [22] (Staphylococcus aureus, 18 h) of 8 µg/mL. For the same compound, the remaining at 0.5 h, 1 µM in [20] is 95%. The fraction unbound at 1 h in series [21] was 0.86. Also, the AUC(0-t) at 24 h in [24] was found to be 15200 ng·h/mL. For the same compound, in [25], the AUC(0-t) at 8 h was 15500 ng·h/mL. Further, the Activity entry in [26] is recorded as “Non-Toxic”; in [27], “Toxic”.
For the compound `N[C@@]12CCCC[C@@H]1CNC2`, the MIC came out at 0.006 µg/mL (≈ 0.0428 µM) in series [1]; 0.05 µg/mL (≈ 0.357 µM) in [2]; 0.05 µg/mL (≈ 0.357 µM) in series [3]; 0.1 µg/mL (≈ 0.713 µM) in series [4]; 0.2 µg/mL (≈ 1.43 µM) in series [5]; 0.012 µg/mL (≈ 0.0856 µM) in series [6]. Moreover, the MIC came out at 0.025 µg/mL (≈ 0.178 µM) in series [7]; 0.1 µg/mL (≈ 0.713 µM) in series [8]; 0.025 µg/mL (≈ 0.178 µM) in series [9]; 0.1 µg/mL (≈ 0.713 µM) in series [10]; 1.56 µg/mL (≈ 11.1 µM) in series [11]; 0.39 µg/mL (≈ 2.78 µM) in series [12]. The results for the MIC in series [13], in series [14] and in series [15] were 1.56 µg/mL (≈ 11.1 µM), more than 6.25 µg/mL and 0.1 µg/mL (≈ 0.713 µM), respectively.
